What is called pIC50 is the negative decadic logarithm of the IC50, by convention in mol/L. A word on the IC50: it is the concentration at which inhibition is half-maximal.

Holding throughout (format): cell-based
Assay [1] addresses CAv1.2 (Homo sapiens, UniProt Q13936). In words: FLIPR data, CAv1.2 channel blocking (Table 6). As to conditions: for CAv1.2 IC50 Ratio closed/inact.: ratio closed/inactivated IC50.
In assay [2] the target is T-type calcium channel (Homo sapiens, UniProt O95180). The assay can be described thus: T-type channel blocking, FLIPR data (Table 6). From the text: (§1) Another method, high-throughput spectrophotometric assay, utilizes loading of the cell lines with a fluorescent dye sensitive to intracellular calcium concentration and subsequent examination of the effects of compounds on the ability of depolarization by potassium chloride or other means to alter intracellular calcium levels.
T-type calcium channel (Homo sapiens, UniProt O95180), sequence (O95180 whole entry): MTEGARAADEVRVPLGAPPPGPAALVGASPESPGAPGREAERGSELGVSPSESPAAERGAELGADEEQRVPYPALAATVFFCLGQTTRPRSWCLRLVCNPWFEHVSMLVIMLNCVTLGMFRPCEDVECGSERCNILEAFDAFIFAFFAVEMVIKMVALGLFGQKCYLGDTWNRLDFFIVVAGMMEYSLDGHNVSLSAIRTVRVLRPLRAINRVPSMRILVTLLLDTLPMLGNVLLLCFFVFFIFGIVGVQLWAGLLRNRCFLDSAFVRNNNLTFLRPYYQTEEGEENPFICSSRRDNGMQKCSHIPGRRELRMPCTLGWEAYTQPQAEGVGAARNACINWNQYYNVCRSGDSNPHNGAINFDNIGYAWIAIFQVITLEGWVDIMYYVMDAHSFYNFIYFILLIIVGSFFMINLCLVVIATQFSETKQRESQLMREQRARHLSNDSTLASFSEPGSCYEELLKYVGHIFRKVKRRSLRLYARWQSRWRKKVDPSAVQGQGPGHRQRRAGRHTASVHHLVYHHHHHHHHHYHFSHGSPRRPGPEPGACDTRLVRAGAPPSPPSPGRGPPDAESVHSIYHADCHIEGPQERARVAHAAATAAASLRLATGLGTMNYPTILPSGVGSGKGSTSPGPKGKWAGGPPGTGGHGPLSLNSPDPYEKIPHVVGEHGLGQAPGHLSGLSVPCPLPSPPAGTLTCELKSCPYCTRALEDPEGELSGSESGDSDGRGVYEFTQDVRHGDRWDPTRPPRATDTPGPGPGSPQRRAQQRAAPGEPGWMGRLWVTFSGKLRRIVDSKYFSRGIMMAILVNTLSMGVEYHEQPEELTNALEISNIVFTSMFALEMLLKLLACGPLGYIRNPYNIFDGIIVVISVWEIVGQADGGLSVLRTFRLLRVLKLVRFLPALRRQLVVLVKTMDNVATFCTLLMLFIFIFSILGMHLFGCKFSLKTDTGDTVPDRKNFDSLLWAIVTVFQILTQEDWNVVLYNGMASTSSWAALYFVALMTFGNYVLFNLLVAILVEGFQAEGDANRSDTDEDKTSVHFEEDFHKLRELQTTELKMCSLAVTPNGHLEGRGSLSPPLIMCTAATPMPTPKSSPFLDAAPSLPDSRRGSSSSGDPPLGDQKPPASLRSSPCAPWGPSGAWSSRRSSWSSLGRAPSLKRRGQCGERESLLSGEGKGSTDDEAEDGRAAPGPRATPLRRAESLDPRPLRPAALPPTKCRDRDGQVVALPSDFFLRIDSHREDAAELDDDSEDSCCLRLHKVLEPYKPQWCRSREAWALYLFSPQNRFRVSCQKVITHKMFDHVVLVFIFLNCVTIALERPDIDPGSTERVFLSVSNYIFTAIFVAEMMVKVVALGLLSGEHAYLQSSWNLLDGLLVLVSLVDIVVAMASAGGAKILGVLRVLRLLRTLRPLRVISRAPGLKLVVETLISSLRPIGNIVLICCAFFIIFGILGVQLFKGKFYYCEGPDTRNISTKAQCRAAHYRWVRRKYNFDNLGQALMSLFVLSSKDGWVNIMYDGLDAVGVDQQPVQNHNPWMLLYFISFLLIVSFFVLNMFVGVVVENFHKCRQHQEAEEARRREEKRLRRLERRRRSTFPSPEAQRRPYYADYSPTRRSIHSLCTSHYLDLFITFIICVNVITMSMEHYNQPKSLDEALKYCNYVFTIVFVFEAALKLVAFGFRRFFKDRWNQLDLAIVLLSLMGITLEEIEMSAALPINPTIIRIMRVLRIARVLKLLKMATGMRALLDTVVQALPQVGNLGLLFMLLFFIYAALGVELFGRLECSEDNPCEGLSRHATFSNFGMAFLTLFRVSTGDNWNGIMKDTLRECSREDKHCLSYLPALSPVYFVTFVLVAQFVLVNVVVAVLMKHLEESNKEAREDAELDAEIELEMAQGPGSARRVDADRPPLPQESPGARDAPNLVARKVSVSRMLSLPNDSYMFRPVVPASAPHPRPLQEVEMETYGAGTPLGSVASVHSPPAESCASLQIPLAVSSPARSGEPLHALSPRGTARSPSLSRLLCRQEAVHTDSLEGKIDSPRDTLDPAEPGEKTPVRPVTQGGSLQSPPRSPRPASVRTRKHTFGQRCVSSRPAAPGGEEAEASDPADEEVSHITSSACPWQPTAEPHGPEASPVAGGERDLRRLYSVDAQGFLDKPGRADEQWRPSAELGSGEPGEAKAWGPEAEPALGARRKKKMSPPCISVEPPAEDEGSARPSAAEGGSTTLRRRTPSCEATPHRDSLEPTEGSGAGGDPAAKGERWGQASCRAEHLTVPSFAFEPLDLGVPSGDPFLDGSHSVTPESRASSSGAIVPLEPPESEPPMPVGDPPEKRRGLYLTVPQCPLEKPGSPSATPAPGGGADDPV

Assay [3] concerns the target T-type calcium channel (Homo sapiens, UniProt O43497). The assay can be described thus: T-type channel blocking, FLIPR data (Table 6). Conditions: CAv3.1.
From the text: as §1

The target in assay [4] is Human Cav 2.2 channels (Homo sapiens, UniProt Q00975). In words: Fluorescent assay for CaV2.2 channels using potassium depolarization (VIPR/FLIPR). Conditions: FLIPR data. The gist of the method:
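HEK293 cells stably expressing human Cav2.2 with α2δ and β subunits plus Kir2.3 were loaded with fluo-4 and incubated 30 min at 25 °C with compound in 4, 12, 25 or 30 mM potassium buffer. Channels were opened with 70 mM potassium (final) and calcium influx was read by fluorescence (Ex 480/Em 535 nm).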

Assay [5] addresses human α1H T-type channels (Homo sapiens, UniProt O95180). In words: T-type calcium channel block, whole cell patch clamp, α1H. Conditions: HEK cells stably expressing human α1H; mainly non-inactivated protocol; values above 10,000 nM represented as 10000. The gist of the method:
(§2)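 Blockade of T-type current was measured in human α1G- or α1H-expressing HEK 293 cells using whole-cell recording with ~5 MΩ pipettes. Test compounds, dissolved in external solution containing 0.1-0.01% DMSO, were applied close to the cell, and block was examined under both non-inactivating and inactivating voltage protocols.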

Assay [6] has as its target N-type calcium channel subunits (α1B, α2δ, and β3a) (Homo sapiens, UniProt Q00975). In words: Block of Cav2.2 channel, whole cell voltage clamp, manual and PatchXpress. Conditions: Table 5; table follows Assay Example 3 (whole cell voltage clamp / PatchXpress); assay not given. The gist of the method: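 Percent block taken as current amplitude ratio with versus without compound, applied in rising doses; IC50 fitted where one cell received multiple doses. Protocol: 50 ms pulses to +20 mV at 0.067 Hz from […] or −90 mV holding; P/n leak subtraction, no junction-potential correction; manual and PatchXpress recordings.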

In assay [7] the target is human α1G T-type channels (Homo sapiens, UniProt O43497). In words: T-type calcium channel block, whole cell patch clamp, α1G. Conditions: HEK cells stably expressing human α1G; mainly non-inactivated protocol; values above 10,000 nM represented as 10000. An outline of the steps: as §2
human α1G T-type channels, sequence (O43497 whole entry): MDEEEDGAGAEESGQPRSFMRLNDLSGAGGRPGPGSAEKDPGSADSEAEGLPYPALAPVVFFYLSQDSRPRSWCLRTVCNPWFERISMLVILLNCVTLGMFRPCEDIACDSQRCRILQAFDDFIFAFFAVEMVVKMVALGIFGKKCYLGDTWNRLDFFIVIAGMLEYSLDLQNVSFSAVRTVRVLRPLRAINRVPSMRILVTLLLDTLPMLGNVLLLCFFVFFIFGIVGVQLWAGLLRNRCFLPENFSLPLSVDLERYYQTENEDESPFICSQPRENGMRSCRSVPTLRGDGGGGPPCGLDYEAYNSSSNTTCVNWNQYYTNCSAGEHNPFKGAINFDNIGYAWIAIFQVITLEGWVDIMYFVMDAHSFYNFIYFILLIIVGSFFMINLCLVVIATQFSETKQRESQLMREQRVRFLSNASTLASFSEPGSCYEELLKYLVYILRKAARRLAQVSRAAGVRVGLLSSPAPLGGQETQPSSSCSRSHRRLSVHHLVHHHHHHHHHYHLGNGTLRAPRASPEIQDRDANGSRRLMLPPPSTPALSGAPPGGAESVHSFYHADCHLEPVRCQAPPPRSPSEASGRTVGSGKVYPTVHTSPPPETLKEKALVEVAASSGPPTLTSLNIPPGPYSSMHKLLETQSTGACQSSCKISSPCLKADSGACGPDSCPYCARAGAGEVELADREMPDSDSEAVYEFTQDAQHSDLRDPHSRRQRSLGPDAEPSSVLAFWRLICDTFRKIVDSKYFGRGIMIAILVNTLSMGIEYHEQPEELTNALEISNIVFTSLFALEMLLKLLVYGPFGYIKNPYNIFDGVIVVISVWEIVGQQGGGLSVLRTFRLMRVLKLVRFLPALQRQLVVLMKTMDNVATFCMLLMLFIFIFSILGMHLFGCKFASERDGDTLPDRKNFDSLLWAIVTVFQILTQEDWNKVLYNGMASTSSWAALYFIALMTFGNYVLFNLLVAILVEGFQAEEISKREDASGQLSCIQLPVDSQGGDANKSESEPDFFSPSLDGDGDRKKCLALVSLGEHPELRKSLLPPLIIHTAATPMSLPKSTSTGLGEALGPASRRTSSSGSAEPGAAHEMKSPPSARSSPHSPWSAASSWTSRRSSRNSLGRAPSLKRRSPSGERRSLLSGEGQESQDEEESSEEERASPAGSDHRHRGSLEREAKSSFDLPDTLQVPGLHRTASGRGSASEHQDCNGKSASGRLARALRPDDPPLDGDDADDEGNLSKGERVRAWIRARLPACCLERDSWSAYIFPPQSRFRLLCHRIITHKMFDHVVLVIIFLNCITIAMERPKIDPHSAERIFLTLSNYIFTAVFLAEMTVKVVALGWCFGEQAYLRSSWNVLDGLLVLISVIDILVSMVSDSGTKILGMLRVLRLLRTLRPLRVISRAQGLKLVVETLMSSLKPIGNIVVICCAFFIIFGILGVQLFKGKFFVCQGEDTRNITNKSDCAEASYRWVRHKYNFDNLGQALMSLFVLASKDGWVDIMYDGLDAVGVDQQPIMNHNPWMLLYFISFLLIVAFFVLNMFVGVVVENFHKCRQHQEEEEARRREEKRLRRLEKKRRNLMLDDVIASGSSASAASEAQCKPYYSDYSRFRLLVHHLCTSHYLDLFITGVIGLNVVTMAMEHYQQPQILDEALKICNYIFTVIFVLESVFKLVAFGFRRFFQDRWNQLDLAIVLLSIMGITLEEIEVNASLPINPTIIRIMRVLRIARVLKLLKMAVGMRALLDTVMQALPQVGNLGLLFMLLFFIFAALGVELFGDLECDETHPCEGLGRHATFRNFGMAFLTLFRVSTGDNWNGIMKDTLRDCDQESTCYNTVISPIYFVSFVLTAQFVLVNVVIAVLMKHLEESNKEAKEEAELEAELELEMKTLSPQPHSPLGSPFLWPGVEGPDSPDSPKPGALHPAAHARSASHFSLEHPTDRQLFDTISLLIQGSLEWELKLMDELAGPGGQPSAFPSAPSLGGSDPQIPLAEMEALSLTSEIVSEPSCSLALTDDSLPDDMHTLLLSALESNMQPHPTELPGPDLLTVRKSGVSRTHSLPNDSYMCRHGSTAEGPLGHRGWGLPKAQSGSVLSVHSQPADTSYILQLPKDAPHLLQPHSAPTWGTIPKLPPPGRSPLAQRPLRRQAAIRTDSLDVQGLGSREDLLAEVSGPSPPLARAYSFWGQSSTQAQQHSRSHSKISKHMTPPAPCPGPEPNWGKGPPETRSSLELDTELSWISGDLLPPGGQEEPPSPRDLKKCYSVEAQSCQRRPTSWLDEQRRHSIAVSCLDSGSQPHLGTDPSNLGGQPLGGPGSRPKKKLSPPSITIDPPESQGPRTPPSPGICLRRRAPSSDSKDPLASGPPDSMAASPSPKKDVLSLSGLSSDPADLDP
The mark [8] stands for this setting: closed state, read-out: CAv1.2 IC50 Closed.
Where [9] appears, read: inactivated state, read-out: CAv1.2 IC50 Inact.
Where [10] appears, read: CAv3.2, closed state, read-out: CAv3.2 IC50 Closed.
Where [11] appears, read: CAv3.2, inactivated state, read-out: CAv3.2 IC50 Inact.
Setting [12] is: CAv3.2, ratio closed/inactivated IC50.
Where [13] appears, read: closed state, read-out: CAv2.2 IC50 Closed.
Where [14] appears, read: inactivated state, read-out: CAv2.2 IC50 Inact.

pIC50: −log10 of the molar value. Read-outs that look alike come from different tables or passages of the source.

T-type calcium channel (Homo sapiens, UniProt O43497), sequence (O43497 whole entry): as above
human α1H T-type channels, sequence (O95180 whole entry): as the sequence (O95180 whole entry) above

On to `CC(C)(C1CC(CNC(=O)c2ccc(OCC(F)(F)F)nc2)C1)S(=O)(=O)c1cccc(C(F)(F)F)c1` (stereo not drawn) [Compound 619], for which the pIC50 in assay [1] (setting [8]) was 5.35; in assay [1] (setting [9]), 5.87; in assay [2] (setting [10]), 5.48; in assay [2] (setting [11]), 5.90; in assay [3] it was 5.29; in assay [4] (setting [13]), 5.78. Also, the pIC50 in assay [4] (setting [14]) is 6.59. In assay [1], the “CAv1.2 IC50 Ratio closed/inact.” value amounted to 3.3. Moreover, the “CAv3.2 IC50 Ratio closed/inact.” value in assay [2] (setting [12]) is listed as 2.6. The “CAv2.2 IC50 Ratio closed/inact.” value in assay [4] (ratio closed/inactivated IC50) was found to be 6.4.
For `CC(C)(C[C@H]1C[C@H](NC(=O)c2ccc(C(F)(F)F)cn2)C1)S(=O)(=O)c1cccc(C(F)(F)F)c1` [Compound 722], the pIC50 in assay [1] (setting [8]) was 5.09; in assay [1] (setting [9]), 5.59; in assay [2] (setting [10]) it was 5.43; in assay [2] (setting [11]), 5.58; in assay [3], 5.56; in assay [4] (setting [13]), 5.92. In addition, the pIC50 in assay [4] (setting [14]) is 6.64. Also, the “CAv1.2 IC50 Ratio closed/inact.” value in assay [1] came to 3.1. Moreover, the “CAv3.2 IC50 Ratio closed/inact.” value in assay [2] (setting [12]) is reported as 1.4. For the same compound, the “CAv2.2 IC50 Ratio closed/inact.” value in assay [4] (ratio closed/inactivated IC50) is reported as 5.3.
`CC(C)([C@H]1C[C@@H](NC(=O)c2ncc(C(F)(F)F)cc2S(C)(=O)=O)C1)S(=O)(=O)c1cc(F)cc(C(F)(F)F)c1` [Compound 584]: the pIC50 in assay [1] (setting [8]) was at most 5.00; in assay [1] (setting [9]) it was at most 5.00; in assay [3] it was at most 5.00; in assay [4] (setting [13]) it was 5.00; in assay [4] (setting [14]), 5.77. Further, the “CAv2.2 IC50 Ratio closed/inact.” value in assay [4] (ratio closed/inactivated IC50) amounted to 5.9.
On to `N[C@H]1CCCCC1C(=O)NC[C@H]1C[C@H](S(=O)(=O)c2cc(F)cc(C(F)(F)F)c2)C1` (stereo partly drawn) [Compound 711], for which the pIC50 in assay [2] (setting [11]) is 5.00; in assay [3], at most 5.00; in assay [4] (setting [13]), 5.00; in assay [4] (setting [14]), 5.29. In addition, the “CAv2.2 IC50 Ratio closed/inact.” value in assay [4] (ratio closed/inactivated IC50) was 1.9.
For the compound `CC(C)([C@H]1C[C@H](NC(=O)c2ncc(C(F)(F)F)cc2S(C)(=O)=O)C1)S(=O)(=O)c1cc(F)cc(C(F)(F)F)c1` [Compound 591], the pIC50 is at most 5.00 in assay [1] (setting [9]), at most 5.00 in assay [3], 5.00 in assay [4] (setting [13]) and 5.94 in assay [4] (setting [14]). Moreover, the “CAv2.2 IC50 Ratio closed/inact.” value in assay [4] (ratio closed/inactivated IC50) was determined as 8.7.
On to `CC(C)([C@H]1C[C@H](NC(=O)c2cc(C(F)(F)F)n[nH]2)C1)S(=O)(=O)c1cc(F)cc(C(F)(F)F)c1` [Compound 594], for which the pIC50 in assay [2] (setting [10]) was 5.03; in assay [2] (setting [11]) it was 5.63; in assay [3] it was at most 5.00; in assay [4] (setting [13]) it was 5.22; in assay [4] (setting [14]), 6.28. For the same compound, the “CAv2.2 IC50 Ratio closed/inact.” value in assay [4] (ratio closed/inactivated IC50) is recorded as 11.7.
For `CC(C)([C@H]1C[C@@H](CNc2ccc(Cl)c(F)c2)C1)S(=O)(=O)c1cccc(C(F)(F)F)c1` [Compound 754], the pIC50 in assay [2] (setting [11]) was 5.00; in assay [3], at most 5.00; in assay [4] (setting [14]), 5.14. In addition, the “CAv2.2 IC50 Ratio closed/inact.” value in assay [4] (ratio closed/inact.) stood at 1.4.
On to `NC1(CC(=O)N2CC(CS(=O)(=O)c3cc(F)cc(C(F)(F)F)c3)C2)CCCCC1` [Compound 749], for which the pIC50 was at most 5.00 in assay [2] (setting [10]), 5.00 in assay [2] (setting [11]), at most 5.00 in assay [3] and at most 5.00 in assay [4] (setting [14]). Further, in assay [2] (CAv3.2, ratio closed/inact.), the “CAv3.2 IC50 Ratio closed/inact.” value came out at 1.
In the case of `O=C(N[C@H]1CC[C@@H](S(=O)(=O)c2cccc(C(F)(F)F)c2)CC1)c1ccnn1CC(F)(F)F` [Compound 193, l-(2,2,2-trifluoroethyl)-N-((1S,4S)-4-(3-(trifluoromethyl)phenylsulfonyl)cyclohexyl)-1H-pyrazole-5-carboxamide], the pIC50 in assay [5] was 5.80; in assay [7], 5.16. Also, the IC50 in assay [6] was found to be 540 nM.
Turning to `O=C(N[C@H]1CC[C@@](F)(S(=O)(=O)c2cccc(C(F)(F)F)c2)CC1)[C@H]1CC[C@@H](c2ccccc2)N1` [Compound 288, (2R,5S)-N-((1S,4S)-4-fluoro-4-(3-(trifluoromethyl)phenylsulfonyl)cyclohexyl)-5-phenylpyrrolidine-2-carboxamide], the pIC50 in assay [5] is 5.49; in assay [7] it was below 5.00. In addition, the IC50 in assay [6] stood at 640 nM.
Taken in the same sequence, the figures for `O=C(N[C@H]1CC[C@@](F)(S(=O)(=O)c2cccc(C(F)(F)F)c2)CC1)C1(C(F)(F)F)CC1` [Compound 275, N-((1S,4S)-4-fluoro-4-(3-(trifluoromethyl)phenylsulfonyl)cyclohexyl)-1-(trifluoromethyl) cyclopropaneCarboxamide] were below 5.00, below 5.00 and 700 nM.
Taken in the same sequence, the figures for `O=C(N[C@H]1CC[C@H](S(=O)(=O)c2cccc(C(F)(F)F)c2)CC1)c1ccc(F)c(C(F)(F)F)c1` [Compound 58, 4-fluoro-3-(trifluoromethyl)-N-((1R,4R)-4-(3-(trifluoromethyl)phenylsulfonyl)cyclohexyl)benzamide] were 5.83, 5.73 and 800 nM.
In the same order, the values of `CC(C)(NC(=O)[C@H]1C[C@H](S(=O)(=O)c2cccc(C(F)(F)F)c2)C1)c1ccc(F)cc1` [Compound 402, (1R,3R)-N-(2-(4-fluorophenyl)propan-2-yl)-3-(3-(trifluoromethyl)phenylsulfonyl)cyclobutane carboxamide] are 6.24, 6.19 and 1700 nM.
As for `O=C(N[C@H]1CC[C@@](F)(S(=O)(=O)c2cc(F)cc(C(F)(F)F)c2)CC1)c1ccc(F)c(Cl)c1` [Compound 329, 3-chloro-4-fluoro-N-((1S,4S)-4-fluoro-4-(3-fluoro-5-(trifluoromethyl)phenylsulfonyl)cyclohexyl) benzamide], the pIC50 in assay [5] and in assay [7] was below 5.00 in each case. In assay [6], the IC50 was 350 nM.
For the compound “N-tert-butyl-2-((1S,4S)-4-((3- (trifluoromethyl)phenylsulfonyl) methyl)cyclohexylamino)acetamide [Compound 144]”, the pIC50 in assay [5] was 6.17; in assay [7], 5.87. Besides, the IC50 in assay [6] is 1250 nM.
In the same order, the values of `COc1cc(C(=O)NC2(C)CCC(S(=O)(=O)c3cccc(C(F)(F)F)c3)CC2)cc(Cl)n1` (stereo not drawn) [Compound 313, 2-chloro-6-methoxy-N-(1-methyl-4-(3-(trifluoromethyl)phenylsulfonyl)cyclohexyl) isonicotinamide] are below 5.00, below 5.00 and 1980 nM.
In the same order, the values of `O=C(N[C@H]1CC[C@@](F)(S(=O)(=O)c2cccc(C(F)(F)F)c2)CC1)C1CCC(F)(F)CC1` [Compound 305, 4,4-difluoro-N-((1S,4S)-4-fluoro-4-(3-(trifluoromethyl)phenylsulfonyl)cyclohexyl) cyclohexanecarboxamide] are below 5.00, below 5.00 and 300 nM.
Turning to `O=C(N[C@H]1C[C@H](CS(=O)(=O)c2cccc(C(F)(F)F)c2)C1)c1ccc(C(F)(F)F)cn1` [Compound 347, 5-(trifluoromethyl)-N-((1R,3R)-3-((3-(trifluoromethyl)phenylsulfonyl)methyl)cyclobutyl)picolinamide], the figures for the pIC50 in assay [5] and in assay [7] were 6.59 and 5.63, respectively. For the same compound, in assay [6], the IC50 is 1120 nM.
In the case of `O=C(NC[C@H]1C[C@H](S(=O)(=O)c2cccc(C(F)(F)F)c2)C1)c1cc(F)cc(Cl)c1` [Compound 370, 3-chloro-5-fluoro-N-(((1R,3R)-3-(3-(trifluoromethyl)phenylsulfonyl)cyclobutyl)methyl)benzamide], the results for the pIC50 in assay [5] and in assay [7] were 6.19 and 6.17, respectively. In addition, the IC50 in assay [6] is 290 nM.
In the same order, the values of `Cc1cc(NC(=O)CN[C@H]2CC[C@H](S(=O)(=O)c3cccc(C(F)(F)F)c3)CC2)on1` [Compound 74, N-(3-methylisoxazol-5-yl)-2-((1R,4R)-4-(3-(trifluoromethyl)phenylsulfonyl)cyclohexylamino)acetamide] are 5.92, 5.82 and 4950 nM.

For the origin of these results see US20120245137A1 (Zalicus Pharmaceuticals Ltd., priority 2009, published 2012).
